Earlier results in patent publication US11345706B2, “Crystalline forms of Acalabrutinib” (Apotex Inc., priority 2017, dated 2022).

- Biopharmaceutics Classification System (BCS) solubility classification: poorly soluble drug
- pH-dependent solubility (pH values of greater than 4, reported in U.S. Pat. No. 9,796,721 B2): practically insoluble
Structure (SMILES): CC#CC(=O)N1CCC[C@H]1c1nc(-c2ccc(C(=O)Nc3ccccn3)cc2)c2c(N)nccn12 [Acalabrutinib, 4-{8-amino-3-[(2S)-1-(but-2-ynoyl)pyrrolidin-2-yl]imidazo[1,5-a]pyrazin-1-yl}-N-(pyridin-2-yl)benzamide]
